Two molecules from paper PMC12648288, “Drastic Impact of Donor Substituents on Xanthenes in the PDT of Glioblastoma” (JACS Au, 2025) can be followed below.

Data set [1] concerns L929 healthy fibroblast cells. As to the kind of experiment: MTT cell viability, dark and PDT. The data set is classed as cell-based. Particulars: Mus musculus. How it is done: (§1) The time- and concentration-dependent effects of NSeAze and NSeMorph on glioblastoma cells were determined by using the MTT assay (Figure S7). In this regard, U118MG and U87MG cells were administered with NSeMorph (0.5–20 μM) and NSeAze (0.01–2.5 μM) for 24 h to evaluate their dark toxicity. Before PDT application, both cell lines were treated as indicated for 1 h and then exposed to 660 nm LED light for 2 and 1 h, respectively (Figure ). Following overnight incubation, the resulting cell viability was calculated and compared to the effect of both compounds in the absence of irradiation. […]
(§2) Cell Culture and Treatment
(§3) Human glioblastoma cell lines (U118MG and U87MG) and healthy mouse fibroblast cells (L929) were cultured in DMEM high glucose medium supplemented with 10% fetal bovine serum (FBS), 2 mM glutamine, 1% penicillin/stremptomycin, 0.5% amphotericin B, and incubated at 37 °C with 5% CO2. NSeMorph and NSeAze were dissolved in cell culture-grade DMSO and further diluted in complete medium for experimental use. For phototoxicity analysis, cells were administered with NSeMorph […]
(§4) mW/cm2) irradiation for 2 h in NSeMorph-treated groups and 1 h in NSeAze-treated groups. Then, each group were incubated for further 24 h in the dark to allow for resting. On the other hand, the dark toxicity of both agents was detected following the same treatment under identical conditions without LED irradiation. To determine the involvement of distinct ROS types, cells were pretreated for 1 h with selective […]
(§5) scavengers prior to photosensitizer exposure. The scavengers included NAC (5 mM), NaN3 (5 mM), histidine (5 mM), Tiron (100 µM), mannitol (25 mM) and Trolox (25 µM).
(§6) Cell viability was then assessed following irradiation. For index calculations, all cells were treated with the increasing concentrations (0.5-500 µM) of NSeMorph and NSeAze for 24 h. Final DMSO concentrations were kept below 0.5% (v/v) in all […]
(§7) PI=IC50, dark /IC50, light
(§8) SI= IC50, light, healthy cells/IC50, light, cancer cells
(§9) TI= IC50, dark, healthy cells/IC50, light, cancer cells
(§10) The viability of cells treated with NSeMorph and NSeAze was determined with MTT (3-[4,5-dimethylthiazol-2-yl]-2,5-diphenyltetrazoliumbromide) assay. Following the administration of both compounds, the medium was discarded and cells were treated with fresh media containing MTT (0.5 mg/ml) for 2-4 h at 37 °C. Formazan crystals were then solubilized in 10% SDS in 0.01 N HCl, and absorbance was measured at 490 and 570 nm wavelength using microplate reader (Multiskan Sky, Thermo Scientific). Data were normalized to vehicle (DMSO)-treated controls. IC50 values were calculated using nonlinear regression analysis in GraphPad Prism 9.02 (GraphPad Software Inc.). All experiments were performed in technical and biological replicates

The subject of data set [2] is U87MG glioblastoma cells. Put plainly: MTT cell viability, dark and PDT. The data set is classed as cell-based, human. Here is the method: as §1, §2, §3, §4, §5, §6, §7, §8, §9, §10
The test system of data set [3] is U118MG glioblastoma cells. As to the kind of experiment: MTT cell viability, dark and PDT. The format is cell-based, human. How it is done:
as §1, §2, §3, §4, §5, §6, §7, §8, §9, §10

Data set [4] is classed as physicochemical. Particulars: pH 5.4. How it is done: Before singlet oxygen trapping experiments were conducted, the photostability of NSeMorph and NSeAze was evaluated under irradiation with a 660 nm LED light source (24.3 mW/cm^2). […] Subsequently, their singlet oxygen generation capabilities were assessed in PBS buffer. 2,2′-(Anthracene-9,10-diyl)-bis(methylene)-dimalonic acid was used as a singlet oxygen trap to determine the quantum yields of singlet oxygen generation (ΦΔ). […] Furthermore, the ROS generation capabilities of the PSs were also evaluated using singlet oxygen sensor green (SOSG).
The gradual but pronounced lysosomal accumulation over time of NSeMoprh, coupled with only moderate mitochondrial targeting, restrict its ability to induce cell death via direct mitochondrial ROS production effectively. Conversely, NSeAze achieves rapid and efficient mitochondrial localization within the first hour of treatment in addition to significant lysosomal localization as well. […] To eliminate the possibility of degradation in lysosomes due to their acidic nature, the stabilities of both NSeMorph and NSeAze were evaluated at different pHs under both dark and light conditions.
Figure S5. Photostability of NSeMorph (20 μM) in sodium citrate buffer (1% DMSO) a. pH 5.4 and e. pH 6.4 upon irradiation with LED light (660 nm, 100 s total irradiation time) and its time dependent absorbance profile at b. pH 5.4, f. pH 6.4. […]

Where [5] appears, read: L929, 1 h incubation, 660 nm LED 2 h (NSeMorph) or 1 h (NSeAze), read-out: IC50 (light).
The mark [6] stands for this setting: L929, dark, 24 h, read-out: IC50 (dark).
Where [7] appears, read: Homo sapiens, U-87 MG, 1 h incubation, 660 nm LED 2 h (NSeMorph) or 1 h (NSeAze), read-out: IC50 (light).
The mark [8] stands for this setting: Homo sapiens, U-87 MG, 24 h, dark, 24 h, read-out: IC50 (dark).
The mark [9] stands for this setting: Homo sapiens, U-118-MG, 1 h incubation, 660 nm LED 2 h (NSeMorph) or 1 h (NSeAze), read-out: IC50 (light).
The mark [10] stands for this setting: Homo sapiens, U-118-MG, 24 h, dark, 24 h, read-out: IC50 (dark).
Setting [11] is: 1 h incubation, 660 nm LED 2 h (NSeMorph) or 1 h (NSeAze), read-out: IC50 (light).

Read-outs that look alike come from different tables or passages of the source.

Broadly, the IC50 is the point on the concentration scale where inhibition reaches its midpoint. Take `c1cc2nc3ccc(=[N+]4CCC4)cc-3[se]c2cc1N1CCC1` [NSeAze]: the IC50 in data set [1] (setting [5]) was below 1 µM; in data set [1] (setting [6]) it was 129 ± 5.1 µM; in data set [2] (Homo sapiens, U-87 MG, 1 h, 660 nm LED 1 h, read-out: IC50 (light)) it was 0.456 µM; in data set [2] (setting [7]), 0.38 µM; in data set [2] (setting [8]), 65.8 ± 2.51 µM; in data set [2] (dark, 24 h, read-out: IC50 (dark)), 65.9 ± 2.5 µM. Moreover, the IC50 in data set [3] (Homo sapiens, U-118-MG, 1 h, 660 nm LED 1 h, read-out: IC50 (light)) came to 0.461 µM; in data set [3] (setting [9]), 0.46 ± 0.02 µM; in data set [3] (setting [10]) it was 60.4 ± 2.6 µM. For the same molecule, in data set [4], the Photostability result is on record as “no significant photodecomposition”.
Consider `c1cc2nc3ccc(=[N+]4CCOCC4)cc-3[se]c2cc1N1CCOCC1` [NSeMorph], for which the IC50 was above 20 µM in data set [1] (setting [5]); above 500 µM in data set [1] (setting [6]); 15.8 ± 0.84 µM in data set [2] (setting [11]); 15.8 µM in data set [2] (setting [7]); above 500 µM in data set [2] (setting [8]); 8.02 ± 0.34 µM in data set [3] (setting [11]). The results for the IC50 in data set [3] (setting [9]) and in data set [3] (setting [10]) were 8 µM and 375 ± 17.4 µM, respectively. Besides, the Photostability entry in data set [4] is given as “no significant photodecomposition”.
